# Experiment: Ex vivo biodistribution (gamma counter)
# Assay type: in vivo, healthy male C57BL/6 mice
# Conditions: 2 h post administration
# Procedure: For animal injection, the tracer was prepared at high molar activity. Radiolabeling of H4Tetrathiol (10^–2 M in DMSO; 40 μL for imaging, 20 μL for bioD) (or DMSO, for [^197m/gHg]HgCl2 mice) with [^197m/gHg]HgCl2 (imaging: 26.7 MBq total m + g, 62 μL; bioD: 13.04 MBq total m + g, 31 μL) was performed in a mixture of ammonium acetate buffer (1 M; pH 7; 198 μL for imaging or 149 μL for bioD) and 6 M NaOH (72 μL or 38 μL required to achieve a pH of 7.5 after addition of activity, for imaging or BioD labeling, respectively). The reaction was allowed to stand for 1 h at 37 °C and quantitative (> 99%) non-isolated percentage radiochemical yield (%RCY) was confirmed via the iTLC methods mentioned above. Further, 100 µL of the reaction was diluted with 50 µL of PBS Tween-20 (0.01 M sodium phosphate, 0.15 M NaCl, 0.05% Tween-20) for imaging mice, or 50 µL of the reaction was diluted with 100 µL of PBS Tween-20 for BioD mice. The tracers were prepared immediately before injection to avoid radiolysis and minimize the tracer loss to any surfaces due to its lipophilicity. The injected doses of each isomer, ^197mHg and ^197gHg, were quantified by measuring an aliquot of known volume of each tracer preparation via HPGe gamma spectroscopy and decay corrected for time of injection using the Eqs. (1) and (2).
# The study was conducted in compliance with the guidelines set by the Canadian Council on Animal Care (CCAC) and approved by the Animal Care Committee (ACC) at the University of British Columbia (A20-0132). A total of eight healthy male C57BL/6 mice weighing approximately 30 g for group 1 and 25 g for group 2 were used in the study. The mice were divided into two experimental groups: group 1 (n = 4) received free [^197m/gHg]HgCl2, while group 2 (n = 4) received [^197m/gHg]Hg-Tetrathiol. Within each group, one mouse was allocated for imaging, while the rest were designated for ex vivo biodistribution analysis. For SPECT imaging, the designated mice were anesthetized using isoflurane via a precision vaporizer. […] Once anesthetized, each imaging mouse received an intravenous (IV) injection via the lateral tail vein of 150 μL of [^197m/gHg]HgCl2 (0.492 MBq ^197mHg + 3.171 MBq ^197gHg) or [^197m/gHg]Hg-Tetrathiol (0.899 MBq ^197mHg + 4.230 MBq ^197gHg) in PBS Tween-20 (0.01 M Na Phosphate, 0.15 M NaCl, 0.05% Tween-20).
# Mice received an IV injection of [^197m/gHg]HgCl2 (0.275 MBq ^197mHg + 1.758 MBq ^197gHg, 150 μL) or [^197m/gHg]Hg-Tetrathiol (0.384 MBq ^197mHg + 1.733 MBq ^197gHg, 150 μL) (n = 3 per group) via the lateral tail vein using a Tailveiner restrainer. After the injection, the mice were returned to their experimental cages and allowed unrestricted movement. Biodistribution studies were conducted 2 h after administration. Mice were humanely euthanized with an overdose of isoflurane followed by cardiac puncture to collect blood pool activity. The organs of interest were fully extracted, cleaned of blood without rinsing, weighed, and analysed for radioactivity using a calibrated gamma counter with the 55–93 keV energy window for ^197gHg and the 110–160 keV energy window for ^197mHg (Packard Cobra II, Perkin Elmer, Waltham, MA, USA). The stomach and intestines were carefully cleaned prior to analysis to remove residual contents. For tissues and fluids that could not be fully removed (muscle, blood and bone) activity values were extrapolated based on standardised organ weights for age- and sex-matched mice tables to ensure accurate normalization (Davies and Morris [1993]; Foster et al. [2014]). The stomach and whole intestines were cleaned before analysis. The radioactivity measurements were decay corrected for time of injection using the Eqs. (1) and (2). The results are reported as the percentage of the injected activity per gram of tissue (%IA/g) and percentage of the injected activity per tissue (%IA/organ).
smiles,measurement,setting,value
[Cl][Hg][Cl] [[^197m/gHg]HgCl2],Animal 4 (%IA/g) g: kidneys,Hg-197g,120 %IA/g
same,Animal 4 (%IA/g) g: large intestine,Hg-197g,2.62 %IA/g
same,Animal 4 (%IA/g) g: liver,Hg-197g,4.99 %IA/g
same,Animal 4 (%IA/g) g: lungs,Hg-197g,3.08 %IA/g
same,Animal 4 (%IA/g) g: muscle,Hg-197g,0.53 %IA/g
same,Animal 4 (%IA/g) g: pancreas,Hg-197g,1.46 %IA/g
same,Animal 4 (%IA/g) g: small intestine,Hg-197g,2.62 %IA/g
same,Animal 4 (%IA/g) g: spleen,Hg-197g,3.58 %IA/g
same,Animal 4 (%IA/g) g: stomach,Hg-197g,1.76 %IA/g
same,Animal 4 (%IA/g) g: tail,Hg-197g,3.76 %IA/g
same,Animal 4 (%IA/g) g: urine,Hg-197g,3.49 %IA/g
same,Average (%IA/Organ): bladder,Hg-197g,0.06 %IA/Organ
same,Average (%IA/Organ): blood,Hg-197g,5.81 %IA/Organ
same,Average (%IA/Organ): bone,Hg-197g,4.16 %IA/Organ
same,Average (%IA/Organ): brain,Hg-197g,0.05 %IA/Organ
same,Average (%IA/Organ): feces,Hg-197g,0.05 %IA/Organ
same,Average (%IA/Organ): heart,Hg-197g,0.25 %IA/Organ
same,Average (%IA/Organ): kidneys,Hg-197g,48.31 %IA/Organ
same,Average (%IA/Organ): large intestine,Hg-197g,0.57 %IA/Organ
same,Average (%IA/Organ): liver,Hg-197g,7.78 %IA/Organ
same,Average (%IA/Organ): lungs,Hg-197g,0.58 %IA/Organ
same,Average (%IA/Organ): muscle,Hg-197g,8.08 %IA/Organ
same,Average (%IA/Organ): pancreas,Hg-197g,0.25 %IA/Organ
same,Average (%IA/Organ): small intestine,Hg-197g,0.70 %IA/Organ
same,Average (%IA/Organ): spleen,Hg-197g,0.31 %IA/Organ
same,Average (%IA/Organ): stomach,Hg-197g,0.20 %IA/Organ
same,Average (%IA/Organ): tail,Hg-197g,2.59 %IA/Organ
same,Average (%IA/Organ): urine,Hg-197g,0.65 %IA/Organ
same,Average Hg-197g (%IA/g): bladder,Hg-197g,2.10 %IA/g
same,Average Hg-197g (%IA/g): blood,Hg-197g,3.53 %IA/g
same,Average Hg-197g (%IA/g): bone,Hg-197g,1.94 %IA/g
same,Average Hg-197g (%IA/g): brain,Hg-197g,0.13 %IA/g
same,Average Hg-197g (%IA/g): feces,Hg-197g,1.29 %IA/g
same,Average Hg-197g (%IA/g): heart,Hg-197g,1.79 %IA/g
same,Average Hg-197g (%IA/g): kidneys,Hg-197g,111.17 %IA/g
same,Average Hg-197g (%IA/g): large intestine,Hg-197g,2.77 %IA/g
same,Average Hg-197g (%IA/g): liver,Hg-197g,5.03 %IA/g
same,Average Hg-197g (%IA/g): lungs,Hg-197g,3.83 %IA/g
same,Average Hg-197g (%IA/g): muscle,Hg-197g,0.63 %IA/g
same,Average Hg-197g (%IA/g): pancreas,Hg-197g,1.48 %IA/g
same,Average Hg-197g (%IA/g): small intestine,Hg-197g,3.17 %IA/g
same,Average Hg-197g (%IA/g): spleen,Hg-197g,3.93 %IA/g
same,Average Hg-197g (%IA/g): stomach,Hg-197g,1.87 %IA/g
same,Average Hg-197g (%IA/g): tail,Hg-197g,5.12 %IA/g
same,Average Hg-197g (%IA/g): urine,Hg-197g,4.08 %IA/g
same,Animal 1 (%IA/g) m: bladder,Hg-197m,1.81 %IA/g
same,Animal 1 (%IA/g) m: blood,Hg-197m,8.43 %IA/g
same,Animal 1 (%IA/g) m: bone,Hg-197m,3.43 %IA/g
same,Animal 1 (%IA/g) m: brain,Hg-197m,0.27 %IA/g
same,Animal 1 (%IA/g) m: feces,Hg-197m,1.31 %IA/g
same,Animal 1 (%IA/g) m: heart,Hg-197m,3.85 %IA/g
same,Animal 1 (%IA/g) m: large intestine,Hg-197m,5.33 %IA/g
same,Animal 1 (%IA/g) m: lungs,Hg-197m,8.68 %IA/g
same,Animal 1 (%IA/g) m: muscle,Hg-197m,1.38 %IA/g
same,Animal 1 (%IA/g) m: pancreas,Hg-197m,2.69 %IA/g
same,Animal 1 (%IA/g) m: small intestine,Hg-197m,6.99 %IA/g
same,Animal 1 (%IA/g) m: spleen,Hg-197m,8.59 %IA/g
same,Animal 1 (%IA/g) m: stomach,Hg-197m,3.64 %IA/g
same,Animal 1 (%IA/g) m: tail,Hg-197m,16.30 %IA/g
same,Animal 1 (%IA/g) m: urine,Hg-197m,8.15 %IA/g
same,Animal 2 (%IA/g) m: bladder,Hg-197m,4.08 %IA/g
same,Animal 2 (%IA/g) m: blood,Hg-197m,5.94 %IA/g
same,Animal 2 (%IA/g) m: bone,Hg-197m,2.79 %IA/g
same,Animal 2 (%IA/g) m: brain,Hg-197m,0.15 %IA/g
same,Animal 2 (%IA/g) m: feces,Hg-197m,0.59 %IA/g
same,Animal 2 (%IA/g) m: heart,Hg-197m,2.24 %IA/g
same,Animal 2 (%IA/g) m: large intestine,Hg-197m,3.94 %IA/g
same,Animal 2 (%IA/g) m: liver,Hg-197m,10.33 %IA/g
same,Animal 2 (%IA/g) m: lungs,Hg-197m,4.50 %IA/g
same,Animal 2 (%IA/g) m: muscle,Hg-197m,0.74 %IA/g
same,Animal 2 (%IA/g) m: pancreas,Hg-197m,1.94 %IA/g
same,Animal 2 (%IA/g) m: small intestine,Hg-197m,4.20 %IA/g
same,Animal 2 (%IA/g) m: spleen,Hg-197m,4.74 %IA/g
same,Animal 2 (%IA/g) m: stomach,Hg-197m,2.42 %IA/g
same,Animal 2 (%IA/g) m: tail,Hg-197m,7.26 %IA/g
same,Animal 2 (%IA/g) m: urine,Hg-197m,5.31 %IA/g
same,Animal 3 (%IA/g) m: bladder,Hg-197m,2.14 %IA/g
same,Animal 3 (%IA/g) m: blood,Hg-197m,5.50 %IA/g
same,Animal 3 (%IA/g) m: bone,Hg-197m,2.67 %IA/g
same,Animal 3 (%IA/g) m: brain,Hg-197m,0.17 %IA/g
same,Animal 3 (%IA/g) m: feces,Hg-197m,3.93 %IA/g
same,Animal 3 (%IA/g) m: heart,Hg-197m,2.10 %IA/g
same,Animal 3 (%IA/g) m: large intestine,Hg-197m,3.68 %IA/g
same,Animal 3 (%IA/g) m: liver,Hg-197m,10.14 %IA/g
same,Animal 3 (%IA/g) m: lungs,Hg-197m,5.07 %IA/g
same,Animal 3 (%IA/g) m: muscle,Hg-197m,0.79 %IA/g
same,Animal 3 (%IA/g) m: pancreas,Hg-197m,2.04 %IA/g
same,Animal 3 (%IA/g) m: small intestine,Hg-197m,4.50 %IA/g
same,Animal 3 (%IA/g) m: spleen,Hg-197m,4.18 %IA/g
same,Animal 3 (%IA/g) m: stomach,Hg-197m,2.28 %IA/g
same,Animal 3 (%IA/g) m: tail,Hg-197m,7.21 %IA/g
same,Animal 3 (%IA/g) m: urine,Hg-197m,5.63 %IA/g
same,Animal 4 (%IA/g) m: bladder,Hg-197m,4.20 %IA/g
same,Animal 4 (%IA/g) m: blood,Hg-197m,4.96 %IA/g
same,Animal 4 (%IA/g) m: bone,Hg-197m,2.78 %IA/g
same,Animal 4 (%IA/g) m: brain,Hg-197m,0.17 %IA/g
same,Animal 4 (%IA/g) m: feces,Hg-197m,1.53 %IA/g
same,Animal 4 (%IA/g) m: heart,Hg-197m,2.14 %IA/g
same,Animal 4 (%IA/g) m: large intestine,Hg-197m,3.97 %IA/g
same,Animal 4 (%IA/g) m: liver,Hg-197m,10.31 %IA/g
same,Animal 4 (%IA/g) m: lungs,Hg-197m,4.53 %IA/g
same,Animal 4 (%IA/g) m: muscle,Hg-197m,0.81 %IA/g
same,Animal 4 (%IA/g) m: pancreas,Hg-197m,2.24 %IA/g
same,Animal 4 (%IA/g) m: small intestine,Hg-197m,3.96 %IA/g
same,Animal 4 (%IA/g) m: spleen,Hg-197m,5.42 %IA/g
same,Animal 4 (%IA/g) m: stomach,Hg-197m,2.56 %IA/g
same,Animal 4 (%IA/g) m: tail,Hg-197m,5.98 %IA/g
same,Animal 4 (%IA/g) m: urine,Hg-197m,5.02 %IA/g
same,Average Hg-197m (%IA/g): bladder,Hg-197m,3.06 %IA/g
same,Average Hg-197m (%IA/g): blood,Hg-197m,6.21 %IA/g
same,Average Hg-197m (%IA/g): bone,Hg-197m,2.92 %IA/g
same,Average Hg-197m (%IA/g): brain,Hg-197m,0.19 %IA/g
same,Average Hg-197m (%IA/g): feces,Hg-197m,1.84 %IA/g
same,Average Hg-197m (%IA/g): heart,Hg-197m,2.58 %IA/g
same,Average Hg-197m (%IA/g): large intestine,Hg-197m,4.23 %IA/g
same,Average Hg-197m (%IA/g): liver,Hg-197m,10.26 %IA/g
same,Average Hg-197m (%IA/g): lungs,Hg-197m,5.70 %IA/g
same,Average Hg-197m (%IA/g): muscle,Hg-197m,0.93 %IA/g
same,Average Hg-197m (%IA/g): pancreas,Hg-197m,2.23 %IA/g
same,Average Hg-197m (%IA/g): small intestine,Hg-197m,4.92 %IA/g
same,Average Hg-197m (%IA/g): spleen,Hg-197m,5.73 %IA/g
same,Average Hg-197m (%IA/g): stomach,Hg-197m,2.72 %IA/g
same,Average Hg-197m (%IA/g): tail,Hg-197m,9.19 %IA/g
same,Average Hg-197m (%IA/g): urine,Hg-197m,6.03 %IA/g

# Reference: article PMC12521730, “Quantitative dual-isotope preclinical SPECT/CT imaging and biodistribution of the mercury-197m/g theranostic pair with [^197m/gHg]HgCl2 and a [^197m/gHg]Hg-tetrathiol complex as a platform for radiopharmaceutical development” (EJNMMI Radiopharmacy and Chemistry, 2025)
